Laboratory results from US9408856B2, “Topical steroidal formulations” (Temple University—Of The Commonwealth System of Higher …, priority 2008, dated 2016).
“Also recorded” adds a separate entry of the source.

Key:
[1] = test system: dexamethasone-induced thymic and splenic atrophy; settings: C3H/HeN mice; 60 mg/kg s.c. 3 days; single DEX dose 1.6 mg; Blauer et al. 1991; cited from earlier work
[2] = test system: dexamethasone-induced thymic and splenic atrophy; experiment: Dexamethasone-induced thymic and splenic atrophy in mice; format: in vivo, CD-1 mice; settings: for protection against DEX-induced thymic and splenic atrophy: CD-1 mice
Method: Administration of dehydroepiandrosterone (DHEA, 60 mg/kg, s.c.) for three days partially reverse thymic and splenic atrophy induced by a single injection of dexamethasone (1.6 mg/mouse). In this experiment, the efficacy of either 10 mg/kg or 20 mg/kg DHEA administered s.c. versus the effect of 10 mg/kg or 20 mg/kg fluasterone was investigated.
5% Cremophor (polyethoxylated castor oil; Sigma Chemicals)-95% saline vehicle was prepared using 95 mL of sterile 0.9% NaCl (filtered through sterile 0.22 micron filter) and 5 mL of Cremophor. The Cremophor was dissolved by swirling for approximately 5 minutes.
Dexamethasone solutions were prepared by dissolving dexamethasone (Sigma Chemicals) in absolute ethanol. For example, 71.9 mg of dexamethasone was dissolved in 2.9 mL of absolute ethanol. In order to prevent precipitation, the solution was kept on a hotplate between injections.
For the 10 mg/kg suspension, 25.7 mg of DHEA was weighed out, transferred to a glass scintillation vial, and 10.3 mL of the Cremophor-saline vehicle was added. The DHEA suspension was homogenized using a Tissumizer at 80% power for 30 sec. The Tissumizer was rinsed with 70% ethanol prior to homogenization. After the 10 mg/kg DHEA suspension was homogenized the probe was rinsed 2× with 50 mL of absolute ethanol, then with 50 mL of 70% ethanol, and then dried with sterile gauze. For the 20 mg/kg DHEA suspension, 50.9 mg DHEA was suspended in 10.2 mL of Cremophor-saline vehicle.
19.4 mg of fluasterone was weighed out and transferred to a glass scintillation vial. 7.8 mL of Cremophor-saline vehicle was added to the vial and the contents of the vial were homogenized with a Tissumizer as described previously. Prior to preparing the 20 mg/kg fluasterone, the probe was rinsed 2× with 50 mL of absolute ethanol and 1× with 50 mL of 70% ethanol. For the 20 mg/kg suspension, 47.0 mg was weighed out and transferred to a glass scintillation vial. 9.4 mL of Cremophor-saline vehicle was added to the vial and the contents of the vial were homogenized with a Tissumizer as described above.
Female CD-1 mice, 43-45 days old, were obtained from Charles River Laboratories. The mice were housed 5 per cage in plastic shoebox cages with ad libitum access to Purina chow 5015 and water in the Pharmacy CAF with 12 hr of alternating light and darkness.
Prior to the experiment the mice were weighed, separated into 6 groups containing 5 mice each and treated as follows:
Mice were treated s.c. with 0.1 mL of 5% Cremophor-95% saline for three days. On the third day, the mice were also treated s.c. with 1.6 mg of dexamethasone dissolved in 0.06 mL of absolute. ethanol.
Mice were treated s.c. with 0.25 mg of DHEA suspended in 0.1 mL of 5% Cremophor-95% saline for three days. On the third day, the mice were also treated s.c. with 1.6 mg of dexamethasone dissolved in 0.06 mL of absolute ethanol.
Mice were treated s.c. with 0.5 mg of DHEA suspended in 0.1 mL of 5% Cremophor-95% saline for three days. On the third day, the mice were also treated s.c. with 1.6 mg of dexamethasone dissolved in 0.06 mL of absolute ethanol.
Mice were treated s.c. with 0.25 mg of fluasterone suspended in 0.1 mL of 5% Cremophor-95% saline for three days. On the third day, the mice were also treated s.c. with 1.6 mg of dexamethasone dissolved in 0.06 mL of absolute ethanol.
Mice were treated s.c. with 0.5 mg of fluasterone suspended in 0.1 mL of 5% Cremophor-95% saline for three days. On the third day, the mice were also treated s.c. with 1.6 mg of dexamethasone dissolved in 0.06 mL of absolute ethanol.
All s.c. injections were made in the nape. All mice were lightly anesthetized while the s.c. injections were done.
Twenty-four hours after dexamethasone treatment, the mice were euthanized by an overdose of isoflurane. The spleen and thymus were removed, cleaned of any adventitia, rinsed, blotted on filter paper, and weighed. […]

[3] = Table 12, 10 mg/kg s.c. 3 days + dexamethasone 1.6 mg s.c. on day 3, 24 h after dexamethasone
[4] = Table 12, 20 mg/kg s.c. 3 days + dexamethasone 1.6 mg s.c. on day 3, 24 h after dexamethasone
[5] = Table 14, micronized steroid 20 mg/kg + dexamethasone
[6] = Table 14, micronized steroid 60 mg/kg + dexamethasone

C[C@]12CC[C@H](O)CC1=CC[C@@H]1[C@@H]2CC[C@]2(C)C(=O)CC[C@@H]12 [DHEA, dehydroepiandrosterone, reference compound]
effect on DEX-induced thymic and splenic atrophy [1]: significantly reduces
protection against DEX-induced thymic and splenic atrophy ([2]; 10 mg/kg): inactive
protection against DEX-induced thymic and splenic atrophy ([2]; 20 mg/kg): no apparent protection; also recorded: inactive
protection against DEX-induced thymic and splenic atrophy ([2]; 60 mg/kg): significantly protected
Body Weight [2, 3]: 23.7 ± 1.0
Spleen wt [2, 3]: 46.4 ± 3.7
Spleen wt/BW [2, 3]: 2.0 ± 0.2
Thymus wt [2, 3]: 31.7 ± 2.6
Thymus wt/BW [2, 3]: 1.3 ± 0.2
Body Weight [2, 4]: 24.5 ± 2.1
Spleen wt [2, 4]: 51.4 ± 2.2
Spleen wt/BW [2, 4]: 2.1 ± 0.2
Thymus wt [2, 4]: 36.6 ± 5.2
Thymus wt/BW [2, 4]: 1.5 ± 0.2
Body Weight [2, 5]: 27.4 ± 4.0
Spleen wt [2, 5]: 56.8 ± 8.1
Spleen wt/BW [2, 5]: 2.1 ± 0.1
Thymus wt [2, 5]: 39.3 ± 4.1
Thymus wt/BW [2, 5]: 1.4 ± 0.1
Body Weight [2, 6]: 27.0 ± 3.1
Spleen wt [2, 6]: 79.9 ± 16.0
Spleen wt/BW [2, 6]: 3.0 ± 0.4
Thymus wt [2, 6]: 63.2 ± 7.8
Thymus wt/BW [2, 6]: 2.3 ± 0.2
Approximate Potency Compared to Fluasterone in Protecting Against DEX-induced Thymic and Splenic Involution ([2]; fluasterone = 1, mice): about ⅙
